The text below walks through data of patent US5541163A, “Renin inhibiting N-(2-amino-2-oxoethyl)butanediamide derivatives” (Bio-Mega/Boehringer Ingelheim Research Inc., priority 1993, dated 1996).

The structures appear in SMILES notation.

The experiment concerns the target T1, human renin (Homo sapiens, UniProt P00797).
T1 construct: A human plasma pool is used as the source of both the substrate (angiotensinogen) and the enzyme (renin); from tissue; host or cells: human plasma pool
T1 sequence (P00797 67-406): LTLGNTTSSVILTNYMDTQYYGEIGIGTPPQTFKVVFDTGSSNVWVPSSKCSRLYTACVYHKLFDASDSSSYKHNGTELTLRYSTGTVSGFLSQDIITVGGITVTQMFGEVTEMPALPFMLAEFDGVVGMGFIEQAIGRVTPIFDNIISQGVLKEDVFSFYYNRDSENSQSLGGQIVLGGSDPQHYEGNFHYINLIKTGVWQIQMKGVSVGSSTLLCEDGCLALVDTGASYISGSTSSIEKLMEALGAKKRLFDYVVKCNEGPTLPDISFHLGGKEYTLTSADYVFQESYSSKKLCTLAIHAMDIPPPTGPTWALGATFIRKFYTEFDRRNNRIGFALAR
Description: Plasma renin assay (inhibition of human renin, angiotensin I by RIA). Format: biochemical. The following applies: human plasma pool, pH 6.0, 2 h incubation at 37°. The method in brief:
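Pooled human plasma supplies both renin and angiotensinogen; inhibitor in MES/1% HSA buffer (1% DMSO final) incubated 2 h at 37° at pH 6.0. Angiotensin I generated quantified by radioimmunoassay, inhibition relative to no-inhibitor control, IC50 by nonlinear regression.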
For `CC(C)C[C@H](O)[C@H](O)[C@H](CC1CCCCC1)NC(=O)[C@@H](CC(=O)N(CC(=O)N(C)C)CC1CCCCC1)Cc1cccnc1` [Compound 58, N^4-(cyclohexylmethyl)-N^4-[2-(dimethylamino)-2-oxoethyl]-N^1-[1(S)-(cyclohexylmethyl)-2(R),3(S)-dihydroxy-5-methylhexyl]-2(R)-(3-pyridinylmethyl)butanediamide], the IC50 turned out to be 10 nM.

With `CC(C)C[C@H](O)[C@H](O)[C@H](CC1CCCCC1)NC(=O)[C@@H](CC(=O)N(CC(=O)N1CCOCC1)CC1CCCCC1)Cc1cccnc1` [Compound 59, N^4-(cyclohexylmethyl)-N^4-(2-morpholino-2-oxoethyl)-N^1-[1(S)-(cyclohexylmethyl)-2(R),3(S)-dihydroxy-5-methylhexyl]-2(R)-(3-pyridinylmethyl)butanediamide], the IC50 is 10 nM.

Molecule `CC(C)C[C@H](O)[C@H](O)[C@H](CC1CCCCC1)NC(=O)[C@@H](CC(=O)N(CCc1ccccc1)CC(=O)N(C)C)Cc1csc(N)n1` [Compound 60, N^4-[2-(dimethylamino)-2-oxoethyl]-N^4-(2-phenylethyl)-N^1-[1(S)-(cyclohexylmethyl)-2(R),3(S)-dihydroxy-5-methylhexyl]-2(R)-[(2-amino-4-thiazolyl)methyl]butanediamide] registered an IC50 of 5 nM.

`CC(C)C[C@H](O)[C@H](O)[C@H](CC1CCCCC1)NC(=O)[C@@H](CC(=O)N(CC(=O)N(C)C)C[C@@H](C)c1ccccc1)Cc1csc(N)n1` [Compound 61, N^4-[2-(dimethylamino)-2-oxoethyl]-N^4-[2(S)-phenylpropyl]-N^1-[1(S)-(cyclohexylmethyl)-2(R),3(S)-dihydroxy-5-methylhexyl]-2(R)-[(2-amino-4-thiazolyl)methyl]-butanediamide] returned an IC50 of 3.5 nM.

`COCOC1CCN(C(=O)CN(CC2CCCCC2)C(=O)C[C@@H](Cc2csc(N)n2)C(=O)N[C@@H](CC2CCCCC2)[C@@H](O)[C@@H](O)CC(C)C)CC1` [Compound 62, N^4 -{2-[4-(methoxymethoxy)piperidinyl]-2-oxoethyl}-N^4-(cyclohexylmethyl)-N^1-[1(S)-(cyclohexylmethyl)-2(R),3(S)-dihydroxy-5-methylhexyl]-2(R)-[(2-amino-4-thiazolyl)methyl]-butanediamide] came in with an IC50 of 3 nM.

`CC(C)C[C@H](O)[C@H](O)[C@H](CC1CCCCC1)NC(=O)[C@@H](CC(=O)N(CC(=O)N(C)CCc1ccccn1)[C@@H](C)C1CCCCC1)Cc1csc(N)n1` [Compound 63, N^4-[1(S)-cyclohexylethyl]-N^4 -{2-{methyl[2-(2-pyridinyl)ethyl]-amino}-2-oxoethyl}-N^1-[1(S)-(cyclohexylmethyl)-2(R),3(S)-dihydroxy-5-methylhexyl]-2(R)-[(2-amino-4-thiazolyl)methyl]butanediamide] gave a 50% inhibitory concentration (IC50) of 1 nM.

`CC(C)C[C@H](O)[C@H](O)[C@H](CC1CCCCC1)NC(=O)[C@@H](CC(=O)N(CC(=O)N(C)C)Cc1ccccn1)Cc1csc(N)n1` [Compound 64, N^4-[2-(dimethylamino)-2-oxoethyl]-N^4-(2-pyridinylmethyl)-N^1-[1(S)-(cyclohexylmethyl)-2(R),3(S)-dihydroxy-5-methylhexyl]-2(R)-[(2-amino-4-thiazolyl)methyl]-butanediamide] had an IC50 of 10 nM.

Take `CN(CCc1ccccn1)C(=O)CN(CC1CCCCC1)C(=O)C[C@@H](Cc1csc(N)n1)C(=O)N[C@@H](CC1CCCCC1)[C@@H](O)CSc1nnnn1C` [Compound 65, N^4-(cyclohexylmethyl)-N^4 -{2-{methyl-[2-(2-pyridinyl)ethyl]amino}-2-oxoethyl}-N^1 -{1(S)-(cyclohexylmethyl)-2(R)-hydroxy-3-[(l-methyl-1H-tetrazol-5-yl)thio]propyl}-2(R)-[(2-amino-4-thiazolyl)methyl]-butanediamide]: the concentration for half-maximal inhibition (IC50) amounted to 45 nM.

Regarding `CC(C)C[C@H](O)[C@H](O)[C@H](CC1CCCCC1)NC(=O)[C@@H](CC(=O)N(CC(=O)N(C)CCc1ccccn1)CC1CCCCC1)Cc1cccnc1` [Compound 66, N^4-(cyclohexylmethyl)-N^4 -{2-{methyl-[2-(2-pyridinyl)ethyl]amino}-2-oxoethyl}-N^1-[1(S)-(cyclohexylmethyl)-2(R),3(S)-dihydroxy-5-methylhexyl]-2(R)-(3-pyridinylmethyl)-butanediamide], the IC50 came out at 10 nM.

As for `CC(C)C[C@H](O)[C@H](O)[C@H](CC1CCCCC1)NC(=O)[C@@H](CC(=O)N(CC(=O)N1CCOCC1)CC1CCCCC1)Cc1ccccn1` [Compound 67, N^4-(cyclohexylmethyl)-N^4-(2-morpholino-2-oxoethyl)-N^1-[1(S)-(cyclohexylmethyl)-2(R),3(S)-dihydroxy-5-methylhexyl]-2(R)-(2-pyridinylmethyl)butanediamide], the IC50 was 4 nM.

Take `CC(C)C[C@H](O)[C@H](O)[C@H](CC1CCCCC1)NC(=O)[C@@H](CC(=O)N(CC(=O)N(C)C)CC1CCCCC1)Cc1ccccn1` [Compound 68, N^4-(cyclohexylmethyl)-N^4-[2-(dimethylamino)-2-oxoethyl]-N^1-[1(S)-(cyclohexylmethyl)-2(R),3(S)-dihydroxy-5-methylhexyl]-2(R)-(2-pyridinylmethyl)butanediamide]: inhibition was half-maximal at 4 nM (IC50).

In turn, `CC(C)C[C@H](O)[C@H](O)[C@H](CC1CCCCC1)NC(=O)[C@@H](CC(=O)N(CC(=O)N(C)C)CC1CCCC1)Cc1cccnc1` [Compound 69, N^4-(cyclopentylmethyl)-N^4-[2-(dimethylamino)-2-oxoethyl]-N^1-[1(S)-(cyclohexylmethyl)-2(R),3(S)-dihydroxy-5-methylhexyl]-2(R)-(3-pyridinylmethyl)butanediamide] had an IC50 of 32 nM.

Molecule `CC(C)C[C@H](O)[C@H](O)[C@H](CC1CCCCC1)NC(=O)[C@@H](CC(=O)N(CC(=O)N(C)C)CC1CCCCCC1)Cc1cccnc1` [Compound 70, N^4-(cycloheptylmethyl)-N^4-[2-(dimethylamino)-2-oxoethyl]-N^1-[1(S)-(cyclohexylmethyl)-2(R),3(S)-dihydroxy-5-methylhexyl]-2(R)-(3-pyridinylmethyl)butanediamide] returned an IC50 of 7 nM.

As to `CC(C)C[C@H](O)[C@H](O)[C@H](CC1CCCCC1)NC(=O)[C@@H](CC(=O)N(CC(=O)N(C)CCc1ccccn1)CC1CCCC1)Cc1csc(N)n1` [Compound 71, N^4-(cyclopentylmethyl)-N^4 -{2-{methyl[2-(2-pyridinyl)ethyl]-amino}-2-oxoethyl]-N^1-[1(S)-(cyclohexylmethyl)-2(R),3(S)-dihydroxy-5-methylhexyl]-2(R)-[(2-amino-4-thiazolyl)methyl]butanediamide], the half-inhibitory concentration (IC50) turned out to be 1 nM.

Consider `CC(C)C[C@H](O)[C@H](O)[C@H](CC1CCCCC1)NC(=O)[C@@H](CC(=O)N(CC(=O)N(C)CCc1ccccn1)Cc1cccs1)Cc1csc(N)n1` [Compound 72, N^4 -{2-{methyl[2-(2-pyridinyl)ethyl]-amino}-2-oxoethyl}-N^4-(2-thienylmethyl)-N^1-[1(S)-(cyclohexylmethyl)-2(R),3(S)-dihydroxy-5-methylhexyl]-2(R)-[(2-amino-4-thiazolyl)methyl]-butanediamide], for which 2 nM corresponded to half-maximal inhibition (IC50).

On to `Cc1cc(C)cc(CN(CC(=O)N(C)C)C(=O)C[C@@H](Cc2csc(N)n2)C(=O)N[C@@H](CC2CCCCC2)[C@@H](O)[C@@H](O)CC(C)C)c1` [Compound 73, N^4-[2-(dimethylamino)-2-oxoethyl]-N^4-[(3,5-dimethylphenyl)methyl]-N^1-[1(S)-(cyclohexylmethyl)-2(R),3(S)-dihydroxy-5-methylhexyl]-2(R)-[(2-amino-4-thiazolyl)methyl]butanediamide], for which half-maximal inhibition (IC50) required 3 nM.

For `CC(C)OC(=O)[C@H](O)[C@H](CC1CCCCC1)NC(=O)[C@@H](CC(=O)N(CC(=O)N(C)CCc1ccccn1)CC1CCCCC1)Cc1csc(N)n1` [Compound 74, N^4-(cyclohexylmethyl)-N^4 -{2-{methyl-[2-(2-pyridinyl)ethyl]amino}-2-oxoethyl}-N^1-[1(S)-(cyclohexylmethyl)-2(R)-hydroxy-3-(1-methylethoxy)-3-oxopropyl]-2(R)-[(2-amino-4-thiazolyl)methyl]butanediamide], the midpoint of inhibition, the IC50, lay at 18 nM.

With `CC(C)C[C@H](O)[C@H](O)[C@H](CC1CCCCC1)NC(=O)[C@@H](CC(=O)N(CC(=O)N(C)CCc1ccccn1)[C@@H](C)c1ccccc1)Cc1csc(N)n1` [Compound 75, N^4 -{2-{methyl[2-(2-pyridinyl)ethyl]-amino}-2-oxoethyl}-N^4-[1(S)-phenylethyl]-N^1-[1(S)-(cyclohexylmethyl)-2(R),3(S)-dihydroxy-5-methylhexyl]-2(R)-[(2-amino-4-thiazolyl)methyl]butanediamide], the IC50 amounted to 1 nM.

In the case of `CC(C)C[C@H](O)[C@H](O)[C@H](CC1CCCCC1)NC(=O)[C@@H](CC(=O)N(CC(=O)N(C)CCc1cccnc1)CC1CCCCC1)Cc1csc(N)n1` [Compound 76, N^4-(cyclohexylmethyl)-N^4 -{2-{methyl[2-(3-pyridinyl)ethyl]-amino}-2-oxoethyl}-N^1-[1(S)-(cyclohexylmethyl)-2(R),3(S)-dihydroxy-5-methylhexyl]-2(R)-[(2-amino-4-thiazolyl)methyl]butanediamide], half-maximal inhibition (IC50) required 0.4 nM.
